The text below walks through data of PMC12067444, “Synthesis and Pharmacological Characterization of Novel Peripheral Cannabinoid-1 Receptor Blockers Based on a Tricyclic Scaffold” (Journal of Medicinal Chemistry, 2025).

The target of one data set is T1, mouse CB1R (Mus musculus, UniProt P47746).
T1 construct: crude membranes from mouse brain; from tissue; host or cells: mouse brain cortex (without cerebellum) membranes, C57Bl/6Jhsd mice
Nature of the data set: Radioligand competition displacement binding, [3H]CP-55,940, mouse brain membranes. The protocol:
BNS compounds’ binding to CB1R and CB2R was assessed in competition displacement assays using [^3H]CP-55,940 as the radioligand and crude membranes from mouse brain or human cells overexpressing the CB1R or CB2R. All data were in triplicates with Ki values determined from three independent experiments. See SI for a detailed procedure.
Supplementary Experimental Methods
Brain membrane preparation for CB1R b i nd i ng . The mouse cortex, excluding the cerebellum, was dissected from 6-week-old C57Bl/6Jhsd mice (Harlan, Israel). The tissue was homogenized in 4 mL Buffer 1 (320 mM sucrose, 2 mM EDTA, 5 m M MgCl 2) using a glass-Teflon homogenizer and Hei-T ORQUE 200 (Heidolph; Cat# 17-012- 002- 25 -1) homogenizer set to 132 rpm. After homogenization, the mixture was centrifuged at 1,600 × g for 10 min at four °C, and the resulting supernatant was kept on ice. The pellet (P1) was discarded, and the remaining supernatant was subje cted to additional rounds of resuspension in 4 mL Buffer 1 followed by centrifugations, repeating this process three times. The pellets obtained from these centrifugations were discarded, and the three supernatant fractions were combined and subjected to higher-speed centrifugation at 39,000 × g for 15 min at f ou r °C. […] This resuspended pellet ( P 2 ) was incubated at 37 °C for 10 min and then centrifuged at 23, 000 × g for 10 min at 4°C.
After centrifugation, the pellet (P2) was resuspended in 5 mL Buffer 2 and further incubated at 30 °C for 40 min. Following this incubation, the suspension was centrifuged at 11,000 × g for 15 min at 4 °C. The pellet (P2) was resuspended in 2 mL Buffer 3 containing 50 mM TRIS HCl pH 7.4, 1 mM EDTA, and 3 mM MgCl 2. T h e protein concentration of the final suspension was determined using the BCA assay.
Subsequently, the suspension was diluted to a final concentration of 2 mg/mL in Buffer 3, aliquoted on ice, and stored at - 80 °C for further use.
CB1R and CB2R binding. Binding to the CB1R/CB2R was asse ss ed using competition displacement as says with [ 3H] CP -55,940 as the radioligand. Purified membranes from the mouse brain were utilized for CB1R assessment (as described above). Purified […]
membranes from cells overexpressing human CB2R ( Char les River CAT # A618) w e r e employed for CB2R evaluation.
For mouse CB1R binding assays, the novel compounds were dissolved in dimethyl sulfoxide (DMSO) to reach a final concentration of 10 mM. Each compound was then diluted in Buffer 3 (as described above) supplemented with 0.14% BSA, resulting in concentrations ranging from 10^-4 M to 10^-10 M. Triplicates of 100 µL of each concentration were dispensed into siliconized glass tubes. At the same time, 100 µL of Buffer 3 with 0.14% BSA was dispensed into three tubes as blanks. CB1R b r a i n membranes (20 µg) were added to each tube and diluted with 800 µL Buffer 3 with 0.14% BSA. Subsequently, 5 nM of [ 3H] CP -55,940 (100 µL) was added to each tube.
The tubes were sealed with parafilm and incubated with shaking (120 rpm) in a water bath at 30 °C for 1 hour. Following incubation, 2 mL of cold Buffer 4 (50 mM TRIS HCl pH 7.4, 1 mg/mL BSA) was added to each tube.
To harvest the content of each tube, a Brandel M-24R Vacuum Harvester was employed, with a wet WHATMAN GF/B filter paper (Fired) (one membrane for 12 tubes) placed in the harvester after being washed twice with Buffer 4. The filter membrane in the harvester absorbed the full content of each tube. Then, the filter membrane was wash ed six times with Buffer 4. Each filter -glass membrane tube wa s excised and transferred to a 20 mL glass tube co ntaining a 5 mL ULTIMA GOLD scintillation cocktail. […]
On the technique in general: Displacement assays read how much labelled ligand stays bound in the presence of the test substance.

The next data set has as its system HepG2 cells. In words: Cell viability assay (CellTiter Glo). The conditions noted are these: 72 h; for IC50: Homo sapiens. It is filed as cell-based. As for the experimental part:
Cell viability assay. To assess the cell viability, which indicates the toxicity of the novel compounds, a total of 3,000 HepG2 cells were seeded into a 384-well plate. The compounds were then dispensed onto the cell plate using a Tecan D300e digital dispenser. Following compound addition, 35 μL CellTiter Glo reagent was added to all wells of the assay plate, and the plate was mixed for 30 sec on an or bital shaker to lyse cells. Subsequently, the plate was incubated at room temperature for 10 minutes. The luminescence signal was measured using a 384-well plate reader (EnVision). The obtained data were analyzed using XL-fit software (ID Business Solutions Ltd., Software version: XL fit 5. 5. 0. 5). The percentage of inhibition was calculated using the […]
Inhibition (%) = (1-Sample / ZPE) ×100
Sample represents the test compound's luminesc e nce signal, and ZPE represents the luminescence signal f r om the zer o-percent enzyme control.

The target in data set [1] is hERG cardiac potassium channel (Homo sapiens, UniProt Q12809). Nature of the data set: hERG automated patch clamp (SyncroPatch 384PE). The note with it: whole cell hERG currents. It is filed as cell-based. For orientation: hERG is a cardiac potassium channel; its block is linked to QT prolongation.
Setting [2] is: [3H]CP-55,940 displacement, mouse brain membranes, read-out: CB1R mKi.
The mark [3] stands for this setting: read-out: cell viability Absolute IC50.
The mark [4] stands for this setting: read-out: cell viability relative IC50.

For orientation: IC50 means the concentration needed to halve the response being measured.

Where two headings read alike, the source gives them in different places.

Chain of hERG cardiac potassium channel (Q12809 whole entry): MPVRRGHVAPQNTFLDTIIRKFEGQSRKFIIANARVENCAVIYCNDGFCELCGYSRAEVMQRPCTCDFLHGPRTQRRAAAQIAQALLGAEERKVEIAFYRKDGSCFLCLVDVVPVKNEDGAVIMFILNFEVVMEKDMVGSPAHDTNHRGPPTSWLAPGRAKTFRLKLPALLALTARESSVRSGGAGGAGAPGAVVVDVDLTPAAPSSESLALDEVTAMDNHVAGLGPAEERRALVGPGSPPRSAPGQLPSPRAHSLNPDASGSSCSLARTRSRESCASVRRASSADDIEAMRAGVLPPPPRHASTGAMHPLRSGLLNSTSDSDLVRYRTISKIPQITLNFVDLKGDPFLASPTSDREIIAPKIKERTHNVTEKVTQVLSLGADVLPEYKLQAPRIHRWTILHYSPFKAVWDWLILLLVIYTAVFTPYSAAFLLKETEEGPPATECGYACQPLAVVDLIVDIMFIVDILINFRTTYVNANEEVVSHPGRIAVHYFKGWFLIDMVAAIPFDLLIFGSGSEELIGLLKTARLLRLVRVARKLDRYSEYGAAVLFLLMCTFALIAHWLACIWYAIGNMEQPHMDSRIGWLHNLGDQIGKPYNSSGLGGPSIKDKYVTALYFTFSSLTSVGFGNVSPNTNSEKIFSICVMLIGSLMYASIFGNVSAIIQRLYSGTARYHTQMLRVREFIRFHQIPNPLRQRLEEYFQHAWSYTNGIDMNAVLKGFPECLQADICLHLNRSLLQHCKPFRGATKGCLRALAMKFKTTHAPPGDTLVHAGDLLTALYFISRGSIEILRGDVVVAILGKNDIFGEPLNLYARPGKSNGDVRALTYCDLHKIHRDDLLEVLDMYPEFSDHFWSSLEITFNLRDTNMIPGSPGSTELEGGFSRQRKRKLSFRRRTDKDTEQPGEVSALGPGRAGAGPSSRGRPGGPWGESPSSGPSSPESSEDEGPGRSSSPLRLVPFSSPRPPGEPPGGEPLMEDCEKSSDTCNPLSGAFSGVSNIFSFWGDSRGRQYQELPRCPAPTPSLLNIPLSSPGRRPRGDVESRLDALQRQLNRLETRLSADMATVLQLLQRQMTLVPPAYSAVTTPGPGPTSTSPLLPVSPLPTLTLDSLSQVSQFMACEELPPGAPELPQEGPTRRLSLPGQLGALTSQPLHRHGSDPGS
T1 sequence (P47746 whole entry): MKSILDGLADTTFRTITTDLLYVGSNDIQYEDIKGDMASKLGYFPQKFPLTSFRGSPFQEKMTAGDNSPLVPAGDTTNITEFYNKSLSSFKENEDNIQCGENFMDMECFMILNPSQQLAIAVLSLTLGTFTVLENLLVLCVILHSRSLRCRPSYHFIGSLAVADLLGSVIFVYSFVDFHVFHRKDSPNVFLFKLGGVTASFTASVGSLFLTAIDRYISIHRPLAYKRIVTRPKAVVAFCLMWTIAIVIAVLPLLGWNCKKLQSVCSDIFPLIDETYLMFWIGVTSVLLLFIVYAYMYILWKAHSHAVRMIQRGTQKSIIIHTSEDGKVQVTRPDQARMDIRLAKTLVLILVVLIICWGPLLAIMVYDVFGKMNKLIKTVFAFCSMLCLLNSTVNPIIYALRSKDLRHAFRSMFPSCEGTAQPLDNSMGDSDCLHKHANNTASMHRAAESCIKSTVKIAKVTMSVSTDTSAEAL

Consider `Cc1ccc(S(=O)(=O)NC2CCCOc3c2nn(-c2ccccc2Cl)c3-c2ccc(Cl)cc2)cc1` (stereo not drawn) [BNS807], for which the Ki on mouse CB1R (setting [2]) stood at 0.01 µM. Further, the “Bottom (%) of cell viability inhibition curve” value in the data set on HepG2 cells is given as -12.17%. For the same molecule, the “Slope of cell viability inhibition curve” value in the data set on HepG2 cells stood at 1.52. Moreover, in the data set on HepG2 cells, the “Top (%) of cell viability inhibition curve” value came to 21.39%. Also, the IC50 was above 100 µM in the data set on HepG2 cells (setting [3]), 17.9 µM in the data set with HepG2 cells (setting [4]) and 18 µM in data set [1].
Turning to `CS(=O)(=O)N1CCC(C(=O)NC2CCCOc3c2nn(-c2ccccc2Cl)c3-c2ccc(Cl)cc2)CC1` (stereo not drawn) [BNS815, N-[2-(2-Chlorophenyl)-3-(4-chlorophenyl)-5,6,7,8-tetrahydrooxepino[3,2-c]pyrazol-8-yl]-1-methylsulfonyl-piperidine-4-carboxamide], the Ki at mouse CB1R (setting [2]) was 0.018 µM. In addition, in the data set on HepG2 cells, the “Bottom (%) of cell viability inhibition curve” value is reported as -9.25%, the “Slope of cell viability inhibition curve” value came to 3.71 and the “Top (%) of cell viability inhibition curve” value was determined as 80.41%. Moreover, the IC50 with HepG2 cells (setting [3]) is 55.9 µM. For the same molecule, in the data set on HepG2 cells (setting [4]), the IC50 was 46.7 µM. Also, 4.86 µM corresponded to half-maximal inhibition in data set [1] (IC50).
`O=S(=O)(NC1CCCOc2c1nn(-c1ccccc1Cl)c2-c1ccc(Cl)cc1)c1ccc(Cl)cc1` (stereo not drawn) [BNS808, 4-chloro-N-[2-(2-chlorophenyl)-3-(4-chlorophenyl)-5,6,7,8-tetrahydrooxepino[3,2-c]pyrazol-8-yl]benzenesulfonamide] displayed a Ki at mouse CB1R of 0.0007 µM. Further, in the data set with HepG2 cells, the “Bottom (%) of cell viability inhibition curve” value is -8.11%, the “Slope of cell viability inhibition curve” value is 3.39 and the “Top (%) of cell viability inhibition curve” value worked out at 62.98%. For the same molecule, the IC50 in the data set on HepG2 cells (setting [3]) was 26.2 µM. The IC50 in the data set with HepG2 cells (setting [4]) turned out to be 16.8 µM. Moreover, the IC50 in data set [1] stood at 5.39 µM.
